Measurements published in ChEMBL document CHEMBL1914304 (J Med Chem, 2011).

How the values were obtained:
HEK293 = test: Cytotoxicity against human HEK293 cells after 72 hrs by luminescence assay; assay type: cell-based; settings: hek293, 72 h
Raji = test: Cytotoxicity against human Raji cells after 72 hrs by luminescence assay; assay type: cell-based
HepG2 = test: Cytotoxicity against human HepG2 cells after 72 hrs by luminescence assay; assay type: cell-based; settings: hepg2, 72 h
BJ = test: Cytotoxicity against human BJ cells after 72 hrs by luminescence assay; assay type: cell-based
[1] = Selectivity ratio of EC50 for human HepG2 cells to EC50 for Plasmodium falciparum

| Structure (SMILES) | Activity (HEK293) | Activity (Raji) | Activity (HepG2) | Activity (BJ) | selectivity ratio [1] |
| --- | --- | --- | --- | --- | --- |
| Cl.O=C(/C=C/c1ccccc1)c1ccccc1O | Non-toxic | Non-toxic | Non-toxic | Non-toxic | > 10 |
| Cl.O=C(/C=C/c1ccccc1)c1cc(F)ccc1O | Non-toxic | Non-toxic | Non-toxic | Non-toxic | > 10 |
| Cl.O=C(/C=C/c1ccc(F)cc1)c1ccccc1O | Non-toxic | Non-toxic | Non-toxic | Non-toxic | > 10 |
| Cl.O=C(/C=C/c1ccc(F)cc1)c1cc(F)ccc1O | Non-toxic | Non-toxic | Non-toxic | Non-toxic | > 10 |
| Cl.O=C(CCc1ccccc1)c1ccccc1O | Non-toxic | Non-toxic | Non-toxic | Non-toxic | > 10 |
| Cl.O=C(CCc1ccccc1)c1cc(F)ccc1O | Non-toxic | Non-toxic | Non-toxic | Non-toxic | > 10 |
| Cl.O=C(CCc1ccc(F)cc1)c1ccccc1O | Non-toxic | Non-toxic | Non-toxic | Non-toxic | > 10 |
| Cl.O=C(CCc1ccc(F)cc1)c1cc(F)ccc1O | Non-toxic | Non-toxic | Non-toxic | Non-toxic | > 10 |
| Cl.O=C(CCc1ccc(F)cc1)c1cc(F)ccc1OCC(O)CN1CCN(c2ccc(F)cc2)CC1 (racemic) | Non-toxic | Non-toxic | Non-toxic | Non-toxic | > 10 |
| Cl.O=C(CCc1ccc(F)cc1)c1cc(F)ccc1OCC(O)CN1CCN(c2ccc([N+](=O)[O-])cc2)CC1 (racemic) | Non-toxic | Non-toxic | Non-toxic | Non-toxic | > 10 |
| Cl.Nc1ccc(N2CCN(CC(O)COc3ccc(F)cc3C(=O)CCc3ccc(F)cc3)CC2)cc1 (racemic) | Non-toxic | Non-toxic | Non-toxic | Non-toxic | > 10 |
| Cl.O=C(CCc1ccc(F)cc1)c1cc(F)ccc1OCC(O)CN1CCN(c2ccc(O)cc2)CC1 (racemic) | Non-toxic | Non-toxic | Non-toxic | Non-toxic | > 10 |
| Cl.O=C(CCc1ccc(F)cc1)c1cc(F)ccc1OCC(O)CN1CCN(c2ccc(C(F)(F)F)cc2)CC1 (racemic) | Non-toxic | Non-toxic | Non-toxic | Non-toxic | > 10 |
| Cl.O=C(CCc1ccc(F)cc1)c1cc(F)ccc1OCC(O)CN1CCN(C(=O)c2ccccc2)CC1 (racemic) | Non-toxic | Non-toxic | Non-toxic | Non-toxic | > 10 |
| Cl.O=C(CCc1ccc(F)cc1)c1cc(F)ccc1OCC(O)CN1CCN(C(c2ccccc2)c2ccccc2)CC1 (racemic) | Non-toxic | Non-toxic | Non-toxic | Non-toxic | > 10 |
| CN1CCN(CC(O)COc2ccc(F)cc2C(=O)CCc2ccc(F)cc2)CC1.Cl (racemic) | Non-toxic | Non-toxic | Non-toxic | Non-toxic | > 10 |
| CCN1CCN(CC(O)COc2ccc(F)cc2C(=O)CCc2ccc(F)cc2)CC1.Cl (racemic) | Non-toxic | Non-toxic | Non-toxic | Non-toxic | > 10 |
| Cl.O=C(CCc1ccc(F)cc1)c1cc(F)ccc1OCC(O)CN1CCOCC1 (racemic) | Non-toxic | Non-toxic | Non-toxic | Non-toxic | > 10 |
| Cl.O=C(CCc1ccccc1)c1ccccc1OCC(O)Cn1ccc2ccccc21 (racemic) | Non-toxic | Non-toxic | Non-toxic | Non-toxic | > 10 |
| CC(C)c1nccn1CC(O)COc1ccccc1C(=O)CCc1ccccc1.Cl (racemic) | Non-toxic | Non-toxic | Non-toxic | Non-toxic | > 10 |
| Cl.O=C(CCc1ccccc1)c1ccccc1OCC(O)CC1CCCC1 (racemic) | Non-toxic | Non-toxic | Non-toxic | Non-toxic | > 10 |
| Cl.O=C(CCc1ccc(F)cc1)c1ccccc1OCC(O)Cn1ccc2ccccc21 (racemic) | Non-toxic | Non-toxic | Non-toxic | Non-toxic | > 10 |
| CC(C)c1nccn1CC(O)COc1ccccc1C(=O)CCc1ccc(F)cc1.Cl (racemic) | Non-toxic | Non-toxic | Non-toxic | Non-toxic | > 10 |
| Cl.O=C(CCc1ccc(F)cc1)c1ccccc1OCC(O)CC1CCCC1 (racemic) | Non-toxic | Non-toxic | Non-toxic | Non-toxic | > 10 |
| Cl.O=C(CCc1ccccc1)c1cc(F)ccc1OCC(O)Cn1ccc2ccccc21 (racemic) | Non-toxic | Non-toxic | Non-toxic | Non-toxic | > 10 |
| CC(C)c1nccn1CC(O)COc1ccc(F)cc1C(=O)CCc1ccccc1.Cl (racemic) | Non-toxic | Non-toxic | Non-toxic | Non-toxic | > 10 |
| Cl.O=C(CCc1ccccc1)c1cc(F)ccc1OCC(O)CC1CCCC1 (racemic) | Non-toxic | Non-toxic | Non-toxic | Non-toxic | > 10 |
| Cl.O=C(CCc1ccc(F)cc1)c1cc(F)ccc1OCC(O)Cn1ccc2ccccc21 (racemic) | Non-toxic | Non-toxic | Non-toxic | Non-toxic | > 10 |
| CC(C)c1nccn1CC(O)COc1ccc(F)cc1C(=O)CCc1ccc(F)cc1.Cl (racemic) | Non-toxic | Non-toxic | Non-toxic | Non-toxic | > 10 |
| Cl.O=C(CCc1ccc(F)cc1)c1cc(F)ccc1OCC(O)CC1CCCC1 (racemic) | Non-toxic | Non-toxic | Non-toxic | Non-toxic | > 10 |
